Measurements taken from patent US10888544B2, “Methods for treating Gaucher disease” (Genzyme Corporation, priority 2017, dated 2021).
Where “and” joins values, the source holds several entries; their conditions need not be identical. Identical values can stand only once. Like-named read-outs stand apart in the source and are kept apart here.

Experiment: Single oral dose pharmacokinetic study of eliglustat tartrate in mild or moderate hepatic impairment and matched healthy subjects (Example 1)
Type: in vivo, human
Conditions: for AUC(0-inf) / AUC(0-t) / Cmax / Vd/F / Tmax: human, 100 mg
Procedure: A multi-center, open-label, single oral dose study of eliglustat tartrate administered to mild or moderate HI and normal hepatic function (healthy) matched (by body weight and cytochrome P450 [CYP] 2D6 phenotype) subjects was carried out to study the effect of mild and moderate hepatic impairment (HI) on the pharmacokinetics (PK) of eliglustat.
Approximately 8 subjects were planned to be enrolled into each HI group (mild or moderate HI) and 8 subjects with normal hepatic function matched to impaired subjects by weight and CYP2D6 phenotype. At least 6 CYP2D6 extensive metabolizers (EMs) were to be enrolled into each impairment group, with the remaining 2 subjects enrolled according to the following preference: at least 20 subjects were to be screened for each impairment group and if identified, up to 2 CYP2D6 poor metabolizers (PMs) were enrolled. If less than 2 PMs were identified, up to 2 CYP2D6 intermediate metabolizers (IMs) were to be enrolled for a total of 8 subjects per group. If less than 2 PMs or IMs were identified, up to 2 additional EMs were to be enrolled for a total of 8 subjects per group. If 2 PMs were identified prior to screening 20 subjects, screening may have been discontinued. If an eligible PM subject was identified after satisfying the above requirements and enrolling 8 subjects for an impairment group, this subject may still have been enrolled for that impairment group.
CYP2D6 EMs and IMs were to receive a single 100-mg dose of eliglustat tartrate, while CYP2D6 PMs were to receive a single 50-mg dose of eliglustat tartrate.
For HI subjects: Male (body weight between 50.0 and 125.0 kg, inclusive) or female subjects (body weight between 40.0 and 110.0 kg, inclusive) between 18 and 79 years, inclusive, with a body mass index between 18.0 and 37 kg/m^2, inclusive; having stable chronic liver disease assessed by medical history, physical examination, and laboratory values; with moderate HI (defined as Child-Pugh score of 7 to 9, inclusive) or mild HI (defined as Child-Pugh score of 5 to 6, inclusive). For healthy subjects: Male or female subjects, between 18 and 79 years, inclusive; body weight within 15% of the body weight of matched subjects with HI, and body mass index between 18.0 and 37 kg/m^2, inclusive; healthy subjects were also matched to HI groups by CYP2D6 phenotype predicted from genotype.
A single 100-mg capsule of eliglustat tartrate (equivalent to 84 mg of eliglustat) was administered to CYP2D6 EM or IM subjects with mild or moderate HI and matching healthy subjects.
Pharmacokinetics: The following PK parameters were calculated for eliglustat plasma concentrations using noncompartmental methods: Maximum plasma concentration observed (Cmax), area under the plasma concentration versus time curve calculated using the trapezoidal method from time zero to the time corresponding to the last quantifiable concentration tlast (AUClast), time to reach Cmax(tmax), area under the plasma concentration versus time curve extrapolated to infinity (AUC), terminal half-life associated with the terminal slope λz (t1/2z), time corresponding to the last concentration above the limit of quantification (tlast), apparent total body clearance of a drug from the plasma (CL/F), and apparent volume of distribution during the terminal (λz) phase (Vz/F).
Blood samples were collected at the following timepoints to assess plasma concentrations of eliglustat: predose and 0.5, 1, 1.5, 2, 2.5, 3, 4, 6, 8, 10, 12, 24, 36, and 48 hours postdose.
Eliglustat concentrations in plasma were determined using a validated liquid chromatography-tandem mass spectrometry method with a lower limit of quantification of 0.2 ng/mL.
Eliglustat PK parameters were summarized using descriptive statistics for each population group and for each CYP2D6 phenotype. […]

[1] = CYP2D6 EM, healthy, N=7, single 100 mg eliglustat tartrate oral, plasma
[2] = CYP2D6 EM, mild HI, N=6, single 100 mg eliglustat tartrate oral, plasma
[3] = CYP2D6 EM, moderate HI, N=7, single 100 mg eliglustat tartrate oral, plasma
[4] = CYP2D6 IM, healthy, N=1, single 100 mg eliglustat tartrate oral, plasma
[5] = CYP2D6 IM, mild HI, N=2, single 100 mg eliglustat tartrate oral, plasma
[6] = CYP2D6 IM, moderate HI, N=1, single 100 mg eliglustat tartrate oral, plasma
[7] = Mild HI vs Healthy, CYP2D6 EM subjects, single 100 mg eliglustat tartrate
[8] = Moderate HI vs Healthy, CYP2D6 EM subjects, single 100 mg eliglustat tartrate

CCCCCCCC(=O)N[C@H](CN1CCCC1)[C@H](O)c1ccc2c(c1)OCCO2 [eliglustat, N-((1R,2R)-1-(2,3-dihydrobenzo[b][1,4]dioxin-6-yl)-1-hydroxy-3-(pyrrolidin-1-yl)propan-2-yl)octanamide]
CL/F, geometric mean [1]: (1420) [40.1] L/h
CL/F, mean ± SD [1]: 1570 ± 628 L/h
t1/2z, geometric mean [1]: (7.03) [12.5] h
t1/2z, mean ± SD [1]: 7.08 h and 7.08 ± 0.881 h
tlast, median [1]: 24.00 h
CL/F, geometric mean [2]: (1230) [72.8]^ L/h
CL/F, mean ± SD [2]: 1980 ± 1440 L/h
t1/2z, geometric mean [2]: (7.13) [20.1] h
t1/2z, mean ± SD [2]: 7.25 ± 1.46 h
tlast, median [2]: 30.00 h
CL/F, geometric mean [3]: (275) [70.9] L/h
CL/F, mean ± SD [3]: 416 ± 295 L/h
t1/2z, geometric mean [3]: (10.3) [21.4]^ h
t1/2z, mean ± SD [3]: 10.5 h and 10.5 ± 2.25 h
tlast, median [3]: 48.00 h
CL/F [4]: 146 L/h
t1/2z [4]: 8.48 h
tlast [4]: 48.00 h
CL/F, mean [5]: 306 L/h
t1/2z, mean [5]: 9.34 h
tlast [5]: 48.00 h
CL/F [6]: 406 L/h
t1/2z [6]: 5.87 h
tlast [6]: 24.00 h
AUC geometric mean ratio, point estimate [7]: 1.15
AUClast geometric mean ratio, point estimate [7]: 1.18
CL/F geometric mean ratio, point estimate [7]: 0.87
Cmax geometric mean ratio, point estimate [7]: 1.22
Vz/F geometric mean ratio, point estimate [7]: 0.88
AUC geometric mean ratio, point estimate [8]: 5.16
AUClast geometric mean ratio, point estimate [8]: 5.35
CL/F geometric mean ratio, point estimate [8]: 0.19
Cmax geometric mean ratio, point estimate [8]: 2.81
Vz/F geometric mean ratio, point estimate [8]: 0.28
t1/2z geometric mean ratio, point estimate [8]: 1.47
AUC(0-inf) (both sexes, plasma, oral, CYP2D6 IM, healthy, N=1, single 100 mg eliglustat tartrate oral, plasma, read-out: AUC (extrapolated to infinity)): 0.578 µg·h/mL
AUC(0-inf) (both sexes, plasma, oral, CYP2D6 IM, mild HI, N=2, single 100 mg eliglustat tartrate oral, plasma, read-out: AUC (extrapolated to infinity), mean): 0.346 µg·h/mL
AUC(0-t) (both sexes, plasma, oral, CYP2D6 IM, mild HI, N=2, single 100 mg eliglustat tartrate oral, plasma, read-out: AUClast, mean): 0.334 µg·h/mL
Cmax (both sexes, plasma, oral, CYP2D6 IM, mild HI, N=2, single 100 mg eliglustat tartrate oral, plasma, read-out: Cmax, mean): 0.0359 µg/mL
Vd/F (both sexes, plasma, oral, CYP2D6 IM, mild HI, N=2, single 100 mg eliglustat tartrate oral, plasma, read-out: Vz/F, mean): 3910 L
Tmax (both sexes, plasma, oral, CYP2D6 IM, mild HI, N=2, single 100 mg eliglustat tartrate oral, plasma, read-out: tmax): 2 h
AUC(0-inf) (both sexes, plasma, oral, CYP2D6 IM, moderate HI, N=1, single 100 mg eliglustat tartrate oral, plasma, read-out: AUC (extrapolated to infinity)): 0.208 µg·h/mL
AUC(0-inf) (both sexes, plasma, po, CYP2D6 EM, healthy, N=7, single 100 mg eliglustat tartrate oral, plasma, read-out: AUC (extrapolated to infinity), geometric mean): 0.0595 µg·h/mL
AUC(0-inf) (both sexes, plasma, po, CYP2D6 EM, healthy, N=7, single 100 mg eliglustat tartrate oral, plasma, read-out: AUC (extrapolated to infinity), mean ± SD): 0.069 ± 0.0491 µg·h/mL
AUC(0-t) (both sexes, plasma, po, CYP2D6 EM, healthy, N=7, single 100 mg eliglustat tartrate oral, plasma, read-out: AUClast, geometric mean): 0.0547 µg·h/mL
AUC(0-t) (both sexes, plasma, po, CYP2D6 EM, healthy, N=7, single 100 mg eliglustat tartrate oral, plasma, read-out: AUClast, mean ± SD): 0.0639 ± 0.0471 µg·h/mL
Cmax (both sexes, plasma, po, CYP2D6 EM, healthy, N=7, single 100 mg eliglustat tartrate oral, plasma, read-out: Cmax, geometric mean): 0.00881 µg/mL
Cmax (both sexes, plasma, po, CYP2D6 EM, healthy, N=7, single 100 mg eliglustat tartrate oral, plasma, read-out: Cmax, mean ± SD): 0.0104 ± 0.0074 µg/mL
Vd/F (both sexes, plasma, po, CYP2D6 EM, healthy, N=7, single 100 mg eliglustat tartrate oral, plasma, read-out: Vz/F, geometric mean): 14400 L
Vd/F (both sexes, plasma, po, CYP2D6 EM, healthy, N=7, single 100 mg eliglustat tartrate oral, plasma, read-out: Vz/F, mean ± SD): 16000 ± 6020 L
Tmax (both sexes, plasma, po, CYP2D6 EM, healthy, N=7, single 100 mg eliglustat tartrate oral, plasma, read-out: tmax, median): 2.5 h
AUC(0-inf) (both sexes, plasma, po, CYP2D6 EM, mild HI, N=6, single 100 mg eliglustat tartrate oral, plasma, read-out: AUC (extrapolated to infinity), geometric mean): 0.0685 µg·h/mL
AUC(0-inf) (both sexes, plasma, po, CYP2D6 EM, mild HI, N=6, single 100 mg eliglustat tartrate oral, plasma, read-out: AUC (extrapolated to infinity), mean ± SD): 0.172 ± 0.293 µg·h/mL
AUC(0-t) (both sexes, plasma, po, CYP2D6 EM, mild HI, N=6, single 100 mg eliglustat tartrate oral, plasma, read-out: AUClast, geometric mean): 0.0643 µg·h/mL
AUC(0-t) (both sexes, plasma, po, CYP2D6 EM, mild HI, N=6, single 100 mg eliglustat tartrate oral, plasma, read-out: AUClast, mean ± SD): 0.166 ± 0.285 µg·h/mL
Cmax (both sexes, plasma, po, CYP2D6 EM, mild HI, N=6, single 100 mg eliglustat tartrate oral, plasma, read-out: Cmax, geometric mean): 0.0107 µg/mL
Cmax (both sexes, plasma, po, CYP2D6 EM, mild HI, N=6, single 100 mg eliglustat tartrate oral, plasma, read-out: Cmax, mean ± SD): 0.0224 ± 0.0302 µg/mL
Vd/F (both sexes, plasma, po, CYP2D6 EM, mild HI, N=6, single 100 mg eliglustat tartrate oral, plasma, read-out: Vz/F, geometric mean): 12700 L
Vd/F (both sexes, plasma, po, CYP2D6 EM, mild HI, N=6, single 100 mg eliglustat tartrate oral, plasma, read-out: Vz/F, mean ± SD): 20000 ± 15600 L
Tmax (both sexes, plasma, po, CYP2D6 EM, mild HI, N=6, single 100 mg eliglustat tartrate oral, plasma, read-out: tmax, median): 1.75 h
AUC(0-inf) (both sexes, plasma, po, CYP2D6 EM, moderate HI, N=7, single 100 mg eliglustat tartrate oral, plasma, read-out: AUC (extrapolated to infinity), geometric mean): 0.307 µg·h/mL
AUC(0-inf) (both sexes, plasma, po, CYP2D6 EM, moderate HI, N=7, single 100 mg eliglustat tartrate oral, plasma, read-out: AUC (extrapolated to infinity), mean ± SD): 0.575 ± 0.696 µg·h/mL
AUC(0-t) (both sexes, plasma, po, CYP2D6 EM, moderate HI, N=7, single 100 mg eliglustat tartrate oral, plasma, read-out: AUClast, geometric mean): 0.293 µg·h/mL
AUC(0-t) (both sexes, plasma, po, CYP2D6 EM, moderate HI, N=7, single 100 mg eliglustat tartrate oral, plasma, read-out: AUClast, mean ± SD): 0.536 ± 0.642 µg·h/mL
Cmax (both sexes, plasma, po, CYP2D6 EM, moderate HI, N=7, single 100 mg eliglustat tartrate oral, plasma, read-out: Cmax, geometric mean): 0.0248 µg/mL
Cmax (both sexes, plasma, po, CYP2D6 EM, moderate HI, N=7, single 100 mg eliglustat tartrate oral, plasma, read-out: Cmax, mean ± SD): 0.0395 ± 0.0434 µg/mL
Vd/F (both sexes, plasma, po, CYP2D6 EM, moderate HI, N=7, single 100 mg eliglustat tartrate oral, plasma, read-out: Vz/F, geometric mean): 4090 L
Vd/F (both sexes, plasma, po, CYP2D6 EM, moderate HI, N=7, single 100 mg eliglustat tartrate oral, plasma, read-out: Vz/F, mean ± SD): 5840 ± 4130 L
Tmax (both sexes, plasma, po, CYP2D6 EM, moderate HI, N=7, single 100 mg eliglustat tartrate oral, plasma, read-out: tmax, median): 4 h
AUC(0-t) (plasma, oral, CYP2D6 IM, healthy, N=1, single 100 mg eliglustat tartrate oral, plasma, read-out: AUClast): 0.568 µg·h/mL
Cmax (plasma, oral, CYP2D6 IM, healthy, N=1, single 100 mg eliglustat tartrate oral, plasma, read-out: Cmax): 0.0759 µg/mL
Vd/F (plasma, oral, CYP2D6 IM, healthy, N=1, single 100 mg eliglustat tartrate oral, plasma, read-out: Vz/F): 1790 L
Tmax (plasma, oral, CYP2D6 IM, healthy, N=1, single 100 mg eliglustat tartrate oral, plasma, read-out: tmax): 2.5 h
AUC(0-t) (plasma, oral, CYP2D6 IM, moderate HI, N=1, single 100 mg eliglustat tartrate oral, plasma, read-out: AUClast): 0.197 µg·h/mL
Cmax (plasma, oral, CYP2D6 IM, moderate HI, N=1, single 100 mg eliglustat tartrate oral, plasma, read-out: Cmax): 0.0356 µg/mL
Vd/F (plasma, oral, CYP2D6 IM, moderate HI, N=1, single 100 mg eliglustat tartrate oral, plasma, read-out: Vz/F): 3430 L
Tmax (plasma, oral, CYP2D6 IM, moderate HI, N=1, single 100 mg eliglustat tartrate oral, plasma, read-out: tmax): 1.52 h
